Measured values published in PubChem BioAssay AID977628 (Broad Institute, 2014).
Inconclusive results are not listed. Activity calls are given as the source filed them.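 How the source made its calls: active means compound lowering the normal-ribosome reporter at least twice as much as the humanized-ribosome reporter, growth loss under a set limit; inconclusive means no clear call, values can overlap the other calls; inactive means the rest.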

Tests used:
Test in all cases: E. coli growth inhibition, wild-type GFP versus h24 humanized RFP strain, dose response, h24 mutant RFP vs wild-type GFP, cherry-pick (AID 977628);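 further: wild-type GFP and h24 humanized RFP strains co-cultured 1 to 1 per well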
[1] = tested on: E. coli WT GFP strain growth, fluorescence, 24 h
[2] = tested on: E. coli h24 humanized mutant RFP strain growth, fluorescence, 24 h
[3] = tested on: E. coli mixed WT/h24 culture total growth, OD600, 24 h

O=C(O)c1cccnc1SCc1ccccc1Cl
AC50 [1]: > 100 µM (inactive)
AC50 [2]: > 100 µM

O=c1[nH]n2c(-c3ccccc3)nc(O)c2c2ccccc12
AC50 [1]: > 100 µM (inactive)
AC50 [2]: 36.6 µM

COC(=O)c1ccsc1NC(=O)c1cccc(OC)c1
AC50 [3]: > 100 µM
AC50 [2]: > 100 µM

CCCCCc1nnc(NC(=O)C2COc3ccccc3O2)s1 (configuration not stated)
AC50 [3]: > 100 µM
AC50 [2]: > 100 µM

Cc1cc(C(=O)c2ccc3ccccc3c2)c(C)o1
AC50 [1]: > 100 µM (inactive)
AC50 [2]: > 100 µM

CC(=O)Nc1nc(C)c(-c2csc(Nc3ccccn3)n2)s1
AC50 [1]: > 100 µM (inactive)
AC50 [2]: > 100 µM

O=C(NCCC1=CCCCC1)c1ccc(Cl)c(S(=O)(=O)Nc2ccccc2)c1
AC50 [1]: > 100 µM (inactive)
AC50 [2]: > 100 µM

COc1cc2cc(C(=O)Nc3ccc4c(c3)OCCO4)[nH]c2cc1OC
AC50 [3]: > 100 µM
AC50 [2]: > 100 µM

CC(C)CNC(=O)c1cccc(NC(=O)C(C)Oc2ccccc2)c1 (configuration not stated)
AC50 [3]: > 100 µM
AC50 [2]: > 100 µM

CC(OC(=O)COc1ccccc1)C(=O)NC1CCCC1 (configuration not stated)
AC50 [2]: > 100 µM

CC(=O)NS(=O)(=O)c1ccc(NC(=O)COc2ccc(C(=O)c3ccccc3)cc2)cc1
AC50 [1]: > 100 µM (inactive)
AC50 [2]: > 100 µM

COc1ccccc1OCC(=O)Nc1ccc(S(=O)(=O)N2CCCCCC2)cc1
AC50 [1]: > 100 µM (inactive)
AC50 [2]: > 100 µM

Cc1cc(C)cc(NC(=O)c2cccc(NC(=O)c3ccco3)c2)c1
AC50 [1]: > 100 µM (inactive)
AC50 [2]: > 100 µM

Cc1ccccc1-n1ncc2c(SCC(=O)N3c4ccccc4CC3C)ncnc21 (configuration not stated)
AC50 [1]: > 100 µM (inactive)
AC50 [2]: > 100 µM

Cc1ccc(NC(=O)c2ccc(NCCCN3CCC(C)CC3)c([N+](=O)[O-])c2)cc1F
AC50 [1]: > 100 µM (inactive)
AC50 [2]: 11.1 µM

COC(=O)c1ccccc1NC(=O)c1ccc2c(c1)CC(C)O2 (configuration not stated)
AC50 [1]: > 100 µM (inactive)
AC50 [2]: > 100 µM

O=C(Nc1cccc(O)c1)c1cccc(S(=O)(=O)Nc2cccc(O)c2)c1
AC50 [2]: > 100 µM

O=C(Nc1cccc(Oc2ccc3c(c2)C(=O)NC3=O)c1)c1cccs1
AC50 [1]: > 100 µM (inactive)
AC50 [2]: > 100 µM

Cc1ccc(CNS(=O)(=O)c2ccc3c(c2)NC(=O)CS3)cc1
AC50 [1]: > 100 µM (inactive)
AC50 [2]: 8.08 µM

O=C(CSCc1ccc(Br)cc1)NCc1ccccn1
AC50 [2]: > 100 µM

O=C(CN1C(=O)c2ccccc2C1=O)Nc1cccc(S(=O)(=O)Nc2ccccc2Cl)c1
AC50 [1]: > 100 µM (inactive)
AC50 [2]: > 100 µM

COc1ccc(NC(=O)c2nc[nH]c2C(=O)N(C)Cc2ccccc2)cc1
AC50 [1]: > 100 µM (inactive)
AC50 [2]: > 100 µM

O=C(NCCc1ccccc1)c1ccc2c(c1)S(=O)(=O)c1ccccc1C2=O
AC50 [1]: > 100 µM (inactive)
AC50 [2]: > 100 µM

O=C(C1Cc2ccccc2CN1C(=O)c1ccccc1)N1CCN(c2ccccc2)CC1 (configuration not stated)
AC50 [2]: > 100 µM

N#Cc1nc(-c2ccco2)oc1NCc1ccccc1Cl
AC50 [2]: > 100 µM

N#Cc1ccsc1NC(=O)CSc1nnnn1-c1ccc(O)cc1
AC50 [1]: > 100 µM (inactive)
AC50 [2]: > 100 µM

C#CC(C)(C)NC(=O)c1ccc(-c2ccccc2F)cc1
AC50 [2]: > 100 µM

Cc1nc2ncnn2c(N2CCC(C(=O)NC3CCCC3)CC2)c1Cc1ccccc1
AC50 [2]: > 100 µM

O=S(=O)(NCc1ccc2c(c1)OCO2)c1ccc2c(c1)oc1ccccc12
AC50 [1]: > 100 µM (inactive)
AC50 [2]: > 100 µM

C=CCNC(=O)c1ccccc1CCc1ccccc1
AC50 [2]: > 100 µM

O=C(Nc1ccc(S(=O)(=O)N2CCOCC2)cc1)c1ccc([N+](=O)[O-])o1
AC50 [1]: > 100 µM (inactive)
AC50 [2]: 50.9 µM

COc1ccc(CNC(=O)CSCc2c(F)cccc2Cl)cc1
AC50 [1]: > 100 µM (inactive)
AC50 [2]: > 100 µM

Cc1nn(C)cc1NC(=O)C[C@@H]1CC[C@@H]2[C@@H](COc3ccc(NC(=O)C4CCC4)cc3C(=O)N2C)O1
AC50 [1]: > 100 µM (inactive)
AC50 [2]: 3.9 µM

COC(=O)c1cc2ccccc2n1S(=O)(=O)c1ccccc1
AC50 [2]: > 100 µM

CCCC(=O)Nc1cccc(C(=O)Nc2ccccc2OCC)c1
AC50 [2]: > 100 µM

CN(c1ccccc1)S(=O)(=O)c1cccc(NC(=O)CCN2C(=O)C3CCCCC3C2=O)c1 (configuration not stated)
AC50 [1]: > 100 µM (inactive)
AC50 [2]: 9.42 µM

CCOC(=O)C(C)Sc1nc(N2CCOCC2)c2c(c1C#N)CC(C)(C)OC2 (configuration not stated)
AC50 [2]: > 100 µM

CSc1nc2nc3c(cc2c(=O)n1-c1ccccc1C)CCCC3
AC50 [2]: 6.76 µM

O=C(Nc1ccc(-c2nnc3n2CCCCC3)cc1)c1cc2ccccc2o1
AC50 [2]: > 100 µM

O=C(Cc1ccc(NC(=O)C2CCCN(C(=O)CCc3ccccc3)C2)cc1)Nc1cccc(C(=O)N2CCCC2)c1 (configuration not stated)
AC50 [1]: > 100 µM (inactive)
AC50 [2]: > 100 µM

O=C(Nc1ccc(Br)cc1)c1cccnc1N1CCCCC1
AC50 [2]: > 100 µM

COc1ccc2oc(C(=O)NCc3ccco3)c(C)c2c1
AC50 [1]: > 100 µM (inactive)
AC50 [2]: > 100 µM

CCN(CC)CCN(C(=O)C1CCCCC1)c1nc2cc3c(cc2s1)OCO3
AC50 [1]: > 100 µM (inactive)
AC50 [2]: > 100 µM

CCOC(=O)[C@]12Cc3ccccc3[C@H]1N(C)C(=O)c1cc(OC)ccc12
AC50 [1]: > 100 µM (inactive)
AC50 [2]: > 100 µM

CC(=O)Nc1ccc2nc3ccccc3nc2c1
AC50 [1]: > 100 µM (inactive)
AC50 [2]: > 100 µM

Cc1ccc(C(=O)Nc2ccc3ncccc3c2)cc1
AC50 [2]: > 100 µM

CCOc1ccc(S(=O)(=O)N(C)c2ccc(OCC(=O)Nc3ccc4[nH]c(=O)[nH]c4c3)cc2)cc1
AC50 [1]: > 100 µM (inactive)
AC50 [2]: > 100 µM

COc1ccccc1NC(=O)COC(=O)Cc1c[nH]c2ccccc12
AC50 [2]: > 100 µM

O=C(Nc1cccc2ccccc12)c1ccc([N+](=O)[O-])o1
AC50 [1]: > 100 µM (inactive)
AC50 [2]: > 100 µM

O=C(NCCCn1ccnc1)c1sc2cc([N+](=O)[O-])ccc2c1Cl
AC50 [2]: > 100 µM

CC(NC(=O)c1ccncc1)c1ccc(Cl)cc1Cl (configuration not stated)
AC50 [2]: > 100 µM

Clc1ccc2nc(CN3CCCc4ccccc43)cn2c1
AC50 [1]: > 100 µM (inactive)
AC50 [2]: > 100 µM

O=C(O)c1ccc(-c2noc(-c3cccc(Cl)c3)n2)cc1
AC50 [1]: > 100 µM (inactive)
AC50 [2]: > 100 µM

Cc1cccc(CSCC(=O)N2CCN(S(=O)(=O)c3ccccc3C#N)CC2)c1
AC50 [1]: > 100 µM (inactive)
AC50 [2]: > 100 µM

CC(=O)Nc1cccc(OCc2ccc([N+](=O)[O-])cc2)c1
AC50 [2]: > 100 µM

Cn1cnc([N+](=O)[O-])c1Oc1ccccc1
AC50 [2]: > 100 µM

O=C(c1cccs1)c1c[nH]cc1-c1ccccc1
AC50 [2]: > 100 µM

Cc1cc(Br)cn2c(Cc3cccc(Cl)c3)c(-c3ccco3)nc12
AC50 [2]: > 100 µM

CCOc1cc(/C=C(\CC(=O)O)c2nc3ccccc3s2)ccc1OC
AC50 [2]: > 100 µM

COc1ccc(NC(=O)c2sccc2-n2cccc2)cc1
AC50 [1]: > 100 µM (inactive)
AC50 [2]: > 100 µM

O=C1C(c2ccccc2)c2ccccc2N1Cc1ccccc1 (configuration not stated)
AC50 [1]: > 100 µM (inactive)
AC50 [2]: > 100 µM

Cn1ccc2cc(-c3ccc4ncnc(NCc5cccs5)c4c3)ccc21
AC50 [2]: > 100 µM

Cc1ccc(-c2nc3ccc(NS(=O)(=O)c4ccccc4)cc3[nH]2)o1
AC50 [1]: > 100 µM (inactive)
AC50 [2]: 5.12 µM

COc1cc(C)ccc1OCc1cc(C(=O)N2CCC(c3ccc(F)cc3)C2)no1 (configuration not stated)
AC50 [1]: > 100 µM (inactive)
AC50 [2]: > 100 µM

COc1ccc(CCNc2nc(-c3ccncc3)cs2)cc1OC
AC50 [1]: > 100 µM (inactive)
AC50 [2]: > 100 µM

S=C1SCN(Cc2cccnc2)CN1Cc1cccnc1
AC50 [2]: > 100 µM
